Like-named read-outs stand apart in the source and are kept apart here.
Assays:
[1] = tested on: CEF (chicken embryo fibroblasts)
[2] = tested on: avian influenza virus KBNP-0028 (KCTC 10866BP); format: cell-based, A/chicken/Korea/SNU0028/2000(H9N2)

SMILES: O=C(CCc1ccc(O)c(O)c1)C[C@H](CCc1ccc(O)c(O)c1)OC1OCC(O)C(O)C1OC(=O)/C=C/c1ccc(O)cc1 (stereo partly drawn) [12B-AJ-17A-1, (5S)-1,7-bis(3,4-dihydroxyphenyl)-3-heptanone-5-O-(2-coumaroyl)-β-D-xylopyranoside]
- cytotoxicity (in words) [1]: no cytotoxicity
- antiviral activity (in words) [2]: had antiviral activity
- Number of wells wherein hemagglutination occurs (among 6 wells) ([2]; 12.5 μg/mL): 3
- Number of wells wherein hemagglutination occurs (among 6 wells) ([2]; 25 μg/mL): 3
- Number of wells wherein hemagglutination occurs (among 6 wells) ([2]; 50 μg/mL): 3
- Number of wells wherein hemagglutination occurs (among 6 wells) ([2]; 100 μg/mL): 3
